# Assays:
# SlGAME5-like = experiment: glycosyltransferase kinetics, […] substrate; type: biochemical, Solanum lycopersicum; conditions: 15 mM UDP-galactose as fixed glycosyl donor
# [1] = system: O=c1c(O)c(-c2ccc(O)c(O)c2)oc2cc(O)cc(O)c12; experiment: purified protein; type: biochemical, Solanum lycopersicum; conditions: 15 mM UDP-galactose as fixed glycosyl donor
compound,measurement,setting,value
O=c1c(O)c(-c2ccc(O)c(O)c2)oc2cc(O)cc(O)c12 [quercetin],Km,SlGAME5-like,33 µM
C[C@H]1CC[C@]2(NC1)O[C@H]1C[C@H]3[C@@H]4CC[C@H]5C[C@@H](O)CC[C@]5(C)[C@H]4CC[C@]3(C)[C@H]1[C@@H]2C [tomatidine],Km,SlGAME5-like; methods print the varied substrate as tomatine,40 µM
SlGAME5 (Solanum lycopersicum),Km,[1],17.50 µM
